Experimental findings from patent US7678884B2, “Biologically active peptide and agent containing the same” (Seikagaku Corporation, priority 2003, dated 2010) are described below.

One experiment relates to OCCM30 cells. Description: Cell differentiation of OCCM30 cells (ALP activity). Particulars: DMEM containing 2% FBS; versus control (FIG. 11). The experiment is classed as cell-based, mouse. As to the method:
As mouse-derived cementoblasts, cells of the OCCM30 cell strain (Bone, 1999 Jul., 25(1):39-47) were used. This cell strain was provided from Professor Somerman of School of Dentistry University of Washington.
(§1) As an index of cell differentiation, alkaline phosphatase (ALP) activity of cells was determined. Cells were inoculated in a 24-well culture plate at a ratio of 5×10^3 cells/well, added with the peptide (a) at various concentrations and cultured in DMEM or αMEM containing 2% FBS. One week after the time point when the cells reached a confluent state, ALP activity was determined by the following enzymochemical method (Bessey-Lowry method, Bessey O A, Lowry O H and Brock M J, A method for the rapid determination of alkaline phosphatase with five cubic millimeter of serum, J. Biol. Chem., 164:321-329, 1946).
The cultured cells were washed with PBS and then disrupted in 10 mM Tris-HCl buffer (pH 7.4, 500 μl) for 40 seconds by using an ultrasonic homogenizer (Handy Sonic model UR-20P, Tomy Seiko) and stirred. Then, 25 μl of this sample liquid was added to 125 μl of ALP buffer (0.1 M carbonate buffer, pH 9.8, 6.7 mM p-nitrophenyl phosphate, 2 mM MgCl2) and incubated at 37° C. for 30 minutes. The reaction was terminated by addition of 125 μl of 0.2 N NaOH, and absorbance was measured at 405 nm by using a microplate reader (Model 550, Bio-Rad Laboratories). […]

A further experiment concerns ST2 cells. Nature of the experiment: Cell differentiation of ST2 cells (ALP activity). It counts as cell-based, mouse. Particulars: for cell differentiation promoting effect on ST2 cells relative to BMP2: at confluent state (FIG. 7), comparison with BMP2; for cell differentiation promoting effect (ALP activity) on ST2 cells: at confluent state, αMEM containing 2% FBS (FIG. 7). The procedure:
As mouse-derived osteoblasts, cells of the MC3T3 cell strain or ST2 cell strain (purchased from Riken Cell Bank) were used. • (iii) Rat Femur Bone Marrow-derived Mesenchymal Stem Cells (BMMSC)
as §1
(§2) The cultured cells were washed with PBS and then disrupted in 10 mM Tris-HCl buffer (pH 7.4, 500 μl) for 40 seconds by using an ultrasonic homogenizer (Handy Sonic model UR-20P, Tomy Seiko) and stirred. Then, 25 μl of this sample liquid was added to 125 μl of ALP buffer (0.1 M carbonate buffer, pH 9.8, 6.7 mM p-nitrophenyl phosphate, 2 mM MgCl2) and incubated at 37° C. for 30 minutes. The reaction was terminated by addition of 125 μl of 0.2 N NaOH, and absorbance was measured at 405 nm by using a microplate reader (Model 550, Bio-Rad Laboratories).
Further, the peptides (a) and (b) and BMP2 were similarly examined by using the ST2 cells and BMMSC cells. The symbol “cont” in the figures indicates the results for the cells cultured in αMEM containing 2% FBS alone, “B” indicates the results for the cells cultured in the medium added only with BMP2, “HN” indicates the results for the cells cultured in the medium added only with the peptide (b), and “PN” indicates the results for the cells cultured in the medium added only with the peptide (a). In the figures, the unit of numerical values shown after “B,” “HN” and “PN” is “ng/ml.”
Further, the peptides (b) and (k) to (n) were similarly examined at a final concentration of 100 ng/ml by using the ST2 cell strain. The symbol “cont” in the figure indicates the results for the cells cultured in DMEM containing 2% FBS alone.

In the next experiment the test system is bone loss model. Nature of the experiment: Bone loss model (tibia defect, soft X-ray). It counts as in vivo, Wistar rats. Particulars: for bone regeneration at the bone loss site (X-ray): peptide 3 mg/ml with collagen gel (Koken Atelocollagen Implant), versus control and collagen gel groups. The procedure: The following experiment was performed in order to examine action of the peptide of the present invention on a bone loss model. • (i) Preparation of Bone Loss Model Male Wistar rats (8-week old) were systemically anesthetized with an ethyl carbamate solution in a volume of 0.5 ml per 100 g of body weight, then the skin of the right and left hind leg tibiae and the periostium of tibiae were incised, and the periostium were reflected to expose the tibiae. Then, a hole having a diameter of 2 mm was perforated in the cortical bone at the same site by using a round bur under pouring physiological saline to form a defect reaching the medullary cavity (diameter: 2 mm, depth: 3 mm). • (ii) Test Method The bone loss site was filled with the peptide (a) (concentration: 0.3 mg/ml or 3 mg/ml) dissolved in a sodium hyaluronate preparation (trade name: ARTZ (registered trade mark), weight average molecular weight of sodium hyaluronate: about 900,000, concentration of sodium hyaluronate: 1%), and the periost and the skin were repositioned and sutured. Healing conditions of the animals 3 weeks after the operation in a group of animals filled with the peptide (peptide group), a group of animals applied with 1% PBS solution of sodium hyaluronate as a vehicle alone (HA group) and a group of animals applied with no substance before the suture of the skin periosteal flap (control group) were examined by using X-ray. • (iii) Results In a similar manner, experiments were performed with collagen gel (trade name: Koken Atelocollagen Implant, Koken) and the peptides (a) and (b) (concentration: 3 mg/ml).

The next experiment concerns PDL cells. Description: Cell differentiation of PDL cells (alkaline phosphatase activity, Bessey-Lowry method). It counts as cell-based, human. Particulars: for ALP activity increasing effect on PDL cells relative to BMP2: at confluent state and one week after (FIG. 5, FIG. 6), comparison with BMP2.
Text: PDL cells were isolated from a healthy premolar carefully extracted from a patient who visited a hospital to extract teeth for orthodontic treatment so that periodontal ligament should not be damaged as far as possible, and cultured. The extracted tooth was washed with sterilized physiological saline and phosphate-buffered saline (PBS, Nissui), and then periodontal ligament existing in ⅓ of the tooth root at the center was scraped off with a sharp knife. The pieces of periodontal ligament were transferred to a plastic plate and minced into small fragments using a round-blade knife. Tissue fragments were left standing in a plate having a diameter of 35 mm (FALCON) and cultured in Dulbecco's modified Eagle medium (DMEM, Nissui) containing antibiotics (100 U/ml of penicillin G, 100 μg/ml of streptomycin and 250 μg/ml of gentamicin) and 10% fetal bovine serum (FBS, EQUITECH-BIO) at 37° C. under 5% CO2. Then, cells released from the periodontal ligament tissue fragments were subcultured under the same conditions, and the 3rd to 5th generation cells were used for experiments. • (ii) Mouse-derived Osteoblasts
as §1, §2
Further, the ALP activity in DMEM containing 2% FBS and DMEM or αMEM containing 2% FBS added with peptide (c) at various concentrations was also similarly examined. The symbol “cont” in FIG. 4 indicates the results for the cells cultured in DMEM containing 2% FBS alone, “PN” indicates the results for the cells cultured in the medium added only with the peptide (a), and “PC” indicates the results for the cells cultured in the medium added only with the peptide (c). In FIG. 4, “pg” and “ng” represent “pg/ml” and “ng/ml,” respectively.
Further, in addition to the peptide (a) (derived from swine), the human-derived peptide (b) and BMP were similarly examined. The results of ALP activity measurement performed when the cells reached a confluent state are shown in FIG. 5, and the results of ALP activity measurement performed one week after the confluent state was attained are shown in FIG. 6. The symbol “cont” in the figures indicates the results for the cells cultured in DMEM containing 2% FBS alone, “B” indicates the results for the cells cultured in the medium added only with BMP2, “PN” indicates the results for the cells cultured in the medium added only with the peptide (a), and “HN” indicates the results for the cells cultured in the medium added only with the peptide (b) In the figures, the unit of numerical values shown after “B,” “PN” and “HN” is “ng/ml.”

The mark [1] stands for this setting: measured at confluent state and one week after (FIG. 5, FIG. 6), versus control.

Ends that are not written are not given here.

On to VPAFPRQPGTPGVASL [Peptide (a)], for which, in the experiment on OCCM30 cells, the “cell differentiation promoting effect (ALP activity) on OCCM30 cells” value was “significant cell differentiation promoting effect”. In the experiment on ST2 cells, the “cell differentiation promoting effect on ST2 cells relative to BMP2” value is “comparable to or higher than that of BMP2” and the “cell differentiation promoting effect (ALP activity) on ST2 cells” value is listed as “significant cell differentiation promoting effect”. Moreover, the “bone regeneration at the bone loss site (X-ray)” value in the experiment on bone loss model is reported as “bone had been regenerated to such an extent that bone loss could hardly be recognized”. In addition, the “bone regeneration at the bone loss site (soft X-ray images)” value with bone loss model (peptide (a) 0.3 mg/ml or 3 mg/ml in 1% sodium hyaluronate preparation (ARTZ), 3 weeks after operation, versus control and HA groups) is “bone had been regenerated to such an extent that bone loss could hardly be recognized”. Moreover, the “ALP activity increasing effect on PDL cells relative to BMP2” value in the experiment on PDL cells is recorded as “comparable to or higher than that of BMP2”. For the same sequence, the “ALP activity of the PDL cells” value in the experiment on PDL cells (setting [1]) was “significantly increased”. Further, the “ALP activity of the PDL cells” value with PDL cells (peptide at various concentrations, 2% FBS medium, one week after confluent state, versus control (FIG. 4)) is on record as “significantly increased”.

Consider “VPFFPQQSGTPGMASL [Peptide (b), peptide designed on the portion of human-derived sheathlin protein corresponding to (a)]”, for which, in the experiment with ST2 cells, the “cell differentiation promoting effect on ST2 cells relative to BMP2” value is “comparable to or higher than that of BMP2” and the “cell differentiation promoting effect (ALP activity) on ST2 cells” value is recorded as “significant cell differentiation promoting effect”. In the experiment with bone loss model, the “bone regeneration at the bone loss site (X-ray)” value is reported as “bone had been regenerated to such an extent that bone loss could hardly be recognized”. Also, in the experiment with PDL cells, the “ALP activity increasing effect on PDL cells relative to BMP2” value is recorded as “comparable to or higher than that of BMP2”. For the same sequence, in the experiment with PDL cells (setting [1]), the “ALP activity of the PDL cells” value is “significantly increased”.
